Source: US9315451B2, “Tetracycline compounds” (priority 2009, dated 2016)
Like-named read-outs stand apart in the source and are kept apart here.

Key:
Type in all cases: in vivo
[1] = system: Uropathogenic E. coli EC200; assay: Murine kidney infection model, uropathogenic E. coli EC200; details: BALB/c mice; for log reduction at 2 mg/kg: Escherichia coli, po, 36 h, PO 2 mg/kg at 12 and 24 hours post infection, read-out: EC200 UTI PO, log10 reduction in CFUs in the kidney versus untreated controls; for EC200 UTI IV, log10 reduction in CFUs in the kidney versus untreated controls: @ 5 mpk in cells (column head 3 mg/kg)
Protocol: (§1) Kidney Infection Models for Uropathogenic E. coli EC200 and K. pneumoniae ESBL Isolate KP453
Compounds were tested in a BALB/c murine kidney infection model challenged with tetracycline-resistant E. coli strain uropathogenic […] via intravenous injection. […] For IV administration test compound was dosed at 3 mg/kg. Thirty-six hours following initiation of treatment, mice were euthanized and bacterial reduction in the kidney was quantified by plating kidney homogenates. Results are reported in Table D as log10 reduction in colony forming units (CFUs) in the kidney versus untreated controls (receiving no test compound).

[2] = Pharmacokinetic studies in rats; details: rat, plasma, male Sprague Dawley rats, fasted; for clearance: read-out: Cl, IV Rat PK; for bioavailability: oral 10 mg/kg vs IV 1 mg/kg, read-out: % F (oral bioavailability), Oral Rat PK; for Cmax: read-out: Cmax, IV Rat PK
Protocol: Pharmacokinetic Studies in Rats Test compounds were evaluated in fasted (no food for 18 hours prior to dosing) male Sprague Dawley rats (3 animals per group) by administration of 1 mg/kg intravenously into the jugular vein and […] by oral gavage. Ten plasma samples were drawn for each dosing route up to 24 hours into heparin-coated vacutainer tubes. The plasma concentrations of the test compounds were quantified by LC/MS/MS using an internal standards. WinNONLIN was used to determine PK parameters ±standard deviation (AUC, Cmax, CL, Vss and % oral bioavailabilty (% F) and are set forth in Table F.

[3] = system: S. aureus Smith (ATCC 13709); assay: Mouse systemic infection (septicemia) model, S. aureus Smith; details: Staphylococcus aureus, CD-1 female mice; for responders at 3 mg/kg: ATCC13709, iv, IV 3 mg/kg one hour post infection, read-out: SA Smith septicemia survival IV (3 mg/kg); for responders at 3 mg/kg / responders at 30 mg/kg: 48 h, survival at 48 hours; for responders at 30 mg/kg: ATCC13709, po, PO 30 mg/kg one hour post infection, read-out: SA Smith septicemia survival PO (30 mg/kg); for ED50: ATCC13709, dose that prevents 50% of the mice from death, 48 hours
Protocol: Mouse Systemic Infection Protocol-S. aureus Smith Septicemia
Compounds were screened for antibacterial activity in vivo in a mouse systemic infection (septicemia) model. In the model, CD-1 female mice (18-22 grams) were injected IP with a S. aureus Smith (ATCC 13709) inoculum that results in 0% survival within 24 to 48 hours. The bacterial dose required to achieve this effect was previously established through virulence studies. At one hour post infection, mice received either […] IV or […] PO. Typically, six mice were treated per dose group. Animal survival was assessed and recorded for 48 hours. Percent survival at 48 hours was recorded and PD50 (mg/kg) was determined for each compound tested.

[4] = system: K. pneumoniae ESBL Isolate KP453; assay: Murine kidney infection model, K. pneumoniae ESBL isolate KP453; details: BALB/c mice; for log reduction at 50 mg/kg: Klebsiella pneumoniae, po, 36 h, PO 50 mg/kg at 9 and 24 hours post infection, read-out: KP453 ESBL UTI PO, log10 reduction in CFUs in the kidney versus untreated controls; for KP453 ESBL UTI IV, log10 reduction in CFUs in the kidney versus untreated controls: IV 20 mg/kg
Protocol: as §1
Compounds were also tested in BALB/c murine kidney infection model challenged with levofloxacin-resistant, ESBL^+ strain KP453 via intravenous injection with 2% carageenen. At 9 and 24 hours post infection mice were treated orally with 50 mg/kg of test compound. For IV administration, test compounds were dosed at 20 mg/kg. At 36 hours following initiation of treatment, mice were euthanized and bacterial reduction in the kidney was quantified by plating homogenates. Results are reported in Table D as log10 reduction in colony forming units (CFUs) in the kidney versus untreated controls (receiving no test compound).

[5] = system: tetracycline-resistant tet(M) S. pneumoniae strain SP160; assay: Neutropenic respiratory infection model for S. pneumoniae (murine lung infection); details: neutropenic BALB/c mice, SP160 intranasal, 30 mg/kg orally at 2 and 12 hours post-infection, lung CFU at 24 hours
Protocol: Neutropenic Respiratory Infection Models for S. pneumoniae
Compounds were tested in a neutropenic BALB/c murine model of lung infection challenged with tetracycline-resistant tet(M) S. pneumoniae strain SP160. Mice were made neutropenic by pre-treatment with cyclophosphamide and infected with SP160 via intranasal administration. Mice were dosed orally with 30 mg/kg compound at 2 and 12 hours post-infection. At 24 hours following initiation of treatment, mice were euthanized and bacterial reduction in the lung was quantified by plating lung homogenates. Data was recorded as log10 reduction in lung colony forming units versus an untreated control group.

Monkey PK = details: cynomolgus monkey, plasma, cynomolgus monkeys; for bioavailability: PO 10 mg/kg vs IV 1 mg/kg, read-out: % F (oral bioavailability), monkey
Protocol: Compounds S24-9-23 and S16-10-161 were evaluated in 3 non-naïve cynomolgus monkeys. Each animal received a single IV dose of 1 mg/kg and after a 7-day washout, received a single PO dose of 10 mg/kg. Nine to ten plasma samples were drawn for each dosing route up to 24 hours into heparin-coated vacutainer tubes. Dose formulations were verified with a 5-point calibration curve. The plasma concentration of the compound was quantified by LC/MS/MS using an internal standard.

[6] = IV 1 mg/kg, read-out: AUC, IV Rat PK
[7] = oral gavage 10 mg/kg, read-out: AUC, Oral Rat PK
[8] = IV, read-out: SA Smith septicemia PD50 IV
[9] = PO, read-out: SA Smith septicemia PD50 PO
[10] = single IV dose of 1 mg/kg, read-out: AUC, IV, monkey
[11] = single PO dose of 10 mg/kg, read-out: AUC, oral, monkey
[12] = single PO dose of 10 mg/kg, read-out: Cmax, oral, monkey

SMILES | log reduction at 2 mg/kg [1] | clearance ([2]; IV 1 mg/kg) | bioavailability [2] | AUC [2, 6] | Cmax ([2]; IV 1 mg/kg) | AUC [2, 7] | responders at 3 mg/kg [3] | responders at 30 mg/kg [3] | ED50 [3, 9] | log reduction at 50 mg/kg [4] | other results
CN(C)[C@@H]1C(O)=C(C(N)=O)C(=O)[C@@]2(O)C(O)=C3C(=O)c4c(O)cc(CN5CCCC5(C)C)c(F)c4C[C@H]3C[C@@H]12 [Compound S2-4-12] | 2.51 | 21.3 mL/min/kg | 14.6% | 754 ng·h/mL | 126 ng/mL | 1160 ng·h/mL | 100% | 100% | 2.1 mg/kg | 2.15 | ED50 [3, 8]: 0.69 mg/kg
CC1CCN(Cc2cc(O)c3c(c2F)C[C@H]2C[C@H]4[C@H](N(C)C)C(O)=C(C(N)=O)C(=O)[C@@]4(O)C(O)=C2C3=O)CC1 [Compound S2-4-19] | 1.91 | 5 mL/min/kg | 14.9% | 3320 ng·h/mL | 518 ng/mL | 4980 ng·h/mL | 100% | 83% | 14.3 mg/kg | 1.27 | ED50 [3, 8]: 1 mg/kg
CCC(C)(C)N(C)Cc1cc(O)c2c(c1F)C[C@H]1C[C@H]3[C@H](N(C)C)C(O)=C(C(N)=O)C(=O)[C@@]3(O)C(O)=C1C2=O [Compound S2-4-28] |  | 17.6 mL/min/kg | 44.7% | 970 ng·h/mL | 170 ng/mL | 4380 ng·h/mL | 100% | 100% | 3 mg/kg |  | Bacterial Reduction in the Lung (Log10 change from 24 hour control) [5]: −0.06 Log10; ED50 [3, 8]: 0.62 mg/kg
CN(C)[C@@H]1C(O)=C(C(N)=O)C(=O)[C@@]2(O)C(O)=C3C(=O)c4c(O)cc(CN5CCCC5(C)C)c(Cl)c4C[C@H]3C[C@@H]12 [Compound S15-13-4] | 3.17 |  |  |  |  |  | 100% | 100% | 6.2 mg/kg | 1.69 | 
CN(C)[C@@H]1C(O)=C(C(N)=O)C(=O)[C@@]2(O)C(O)=C3C(=O)c4c(O)cc(CN(C)C(C)(C)C)c(Cl)c4C[C@H]3C[C@@H]12 [Compound S15-13-15] | 2.82 | 15.4 mL/min/kg | 21% | 1100 ng·h/mL | 154 ng/mL | 2260 ng·h/mL | 100% | 100% | 3.5 mg/kg | 1.45 | 
C[C@H]1CCCN1Cc1cc(O)c2c(c1Cl)C[C@H]1C[C@H]3[C@H](N(C)C)C(O)=C(C(N)=O)C(=O)[C@@]3(O)C(O)=C1C2=O [Compound S15-13-194] | 3.44 |  |  |  |  |  | 100% | 100% |  | 2.18 | 
CN(C)c1c(CN2CCCCC2)cc(O)c2c1C[C@H]1C[C@H]3[C@H](N(C)C)C(O)=C(C(N)=O)C(=O)[C@@]3(O)C(O)=C1C2=O [Compound S16-10-161] | 1.85 | 12.8 mL/min/kg | 31.6% | 1310 ng·h/mL | 689 ng/mL | 4440 ng·h/mL | 100% | 100% |  | 1.04 | bioavailability (Monkey PK): 42.7%; clearance (Monkey PK; single IV dose of 1 mg/kg, read-out: Cl, IV, monkey (printed C1, mL/hr) (converted)): 184 mL/h; Vd (Monkey PK; single IV dose of 1 mg/kg, read-out: Vdss, IV, monkey (unit inferred)): 4.05 L/kg; AUC (Monkey PK; [10]): 5680 ng·h/mL; Cmax (Monkey PK; single IV dose of 1 mg/kg, read-out: Cmax, IV, monkey (unit inferred)): 861 ng/mL; AUC (Monkey PK; [11]): 26000 ng·h/mL; Cmax (Monkey PK; [12]): 982 ng/mL; EC200 UTI IV, log10 reduction in CFUs in the kidney versus untreated controls [1]: @ 5 mpk −3.99 log10; KP453 ESBL UTI IV, log10 reduction in CFUs in the kidney versus untreated controls [4]: −3.09 log10
COc1c(CN2CCCC[C@@H]2C)cc(O)c2c1C[C@H]1C[C@H]3[C@H](N(C)C)C(O)=C(C(N)=O)C(=O)[C@@]3(O)C(O)=C1C2=O [Compound S24-9-17] | 2.61 |  |  |  |  |  | 100% | 100% |  | 2.41 | 
COc1c(CN2CCCCC2)cc(O)c2c1C[C@H]1C[C@H]3[C@H](N(C)C)C(O)=C(C(N)=O)C(=O)[C@@]3(O)C(O)=C1C2=O [Compound S24-9-23] | 2.99 | 9.26 mL/min/kg | 12.2% | 1830 ng·h/mL | 795 ng/mL | 2230 ng·h/mL | 100% | 100% |  | 2.93 | bioavailability (Monkey PK): 36.8%; clearance (Monkey PK; single IV dose of 1 mg/kg, read-out: Cl, IV, monkey (converted)): 2.4 mL/min/kg; Vd (Monkey PK; single IV dose of 1 mg/kg, read-out: Vdss, IV, monkey): 3.4 L/kg; AUC (Monkey PK; [10]): 7070 ng·h/mL; Cmax (Monkey PK; single IV dose of 1 mg/kg, read-out: Cmax, IV, monkey): 1370 ng/mL; AUC (Monkey PK; [11]): 22800 ng·h/mL; Cmax (Monkey PK; [12]): 1350 ng/mL; EC200 UTI IV, log10 reduction in CFUs in the kidney versus untreated controls [1]: @ 5 mpk −4.34 log10; KP453 ESBL UTI IV, log10 reduction in CFUs in the kidney versus untreated controls [4]: −2.95 log10
COc1c(CN2[C@H](C)CCC[C@@H]2C)cc(O)c2c1C[C@H]1C[C@H]3[C@H](N(C)C)C(O)=C(C(N)=O)C(=O)[C@@]3(O)C(O)=C1C2=O [Compound S24-9-25] | 2.99 |  |  |  |  |  | 100% | 100% |  | 1.71 | 
CN(C)[C@@H]1C(O)=C(C(N)=O)C(=O)[C@@]2(O)C(O)=C3C(=O)c4c(O)cc(CN5CCCC5)c(C(F)(F)F)c4C[C@H]3C[C@@H]12 [Compound S25-11-1] | 3.97 |  |  |  |  |  | 100% | 100% |  | 1.84 | 
